{
  "source": "patent US20260158074A1",
  "about": "“A Cell Surface Marker Signature for Arrhythmogenic Pluripotent Stem Cell-Derived Cardiomyocytes” (Western Sydney Local Health District, priority 2022, published 2026)",
  "key": {"hPSC SCVI8": {"tested_on": "hPSC SCVI8", "assay": "DEAB-treated cardiomyocyte differentiation, RT-PCR at day 14", "assay_type": "cell-based, human", "conditions": "DEAB 1 nM-100 μM, day 3 to 7 or day 5 to 7", "procedure": "hPSC SCVI8 were cultured in Matrigel® (Corning, Cat. No. 354277) coated petri dishes in complete mTeSR™ Plus basal medium (StemCell Technologies, Cat. No. 100-0276) supplemented with 20% (v/v) mTeSR™ Plus 5× supplement (StemCell Technologies) and 0.5% (v/v) streptomycin and penicillin (ThermoFisher, Cat. No. 15140163) at 37° C. in 5% CO2. Media was changed daily and cells passaged when confluency reached approximately 80%.\nCardiomyocyte differentiation was achieved using small-molecule modulators of canonical Wnt signalling as described by Lian et al. (Lian et al. […]; 8(1):162-175), but with the addition of 1 nM, 1 μM or 100 μM 4-diethylaminobenzaldehyde (DEAB, Sigma Merck, Cat. No. D86256) at either day 3 or 5 of differentiation (FIG. 9a.). In brief, hPSC SCVI8 cells from confluent dishes were washed once with Dulbeco's Phosphate Buffered Saline (DPBS) without calcium and magnesium (Lonza, Cat. No. 17-512F), and harvested with TrypLE™ Express Enzyme (ThermoFisher, Cat. No. 12604021) and seeded at a concentration of 3.75×10^5 cells/mL in Matrigel® coated 12-well plates at a volume of 2 mL of complete mTeSR Plus basal medium and 10 μM Y-27632 (RHO/ROCK) inhibitor (StemCell Technologies, Cat. No. 072304). At day 0 of differentiation, cells were washed once using DPBS and transferred to mesoderm induction media that consisted of 6 μM CHIR99021 (GSK3 inhibitor, Tocris, Cat. No. 4423) in complete Roswell Park Memorial Institute (RPMI) 1640 medium, no glutamine (ThermoFisher, Cat. No. 21870092) supplemented with 2% (v/v) B-27 supplement, minus insulin (ThermoFisher, Cat. No. A1895601), 0.5% (v/v) streptomycin and penicillin and 1% (v/v) GlutaMAX™ supplement (ThermoFisher, Cat. No. 35050061). At day 1, CHIR99021 was removed, and cells maintained in complete RPMI minus insulin. At day 3, cells were transferred to cardiac induction media that consisted of 5 μM IWP-2 (Tocris, Cat. No. 3533) in complete RPMI minus insulin and was removed at day 5. At day 7 of differentiation, cells were maintained in complete RPMI supplemented with 2% (v/v) B-27™ Supplement (50×) (ThermoFisher, Cat. No. 17504-001), 0.5% (v/v) streptomycin and penicillin and 1% (v/v) GlutaMAX™ supplement. The media was changed every 2-3 days. Cells were harvested at day 14 for quantitative real-time polymerase chain reaction (RT-PCR).\nTotal cellular RNA was extracted using the Isolate II RNA Mini Kit (Bioline, Cat. No. BIO-52073) as per the manufacturer's instructions. Reverse transcription was performed with M-MLV Reverse Transcriptase (Promega, Cat. No. M1701) following the manufacturer's protocol. mRNA gene expression was assessed by qPCR using SensiFAST™ SYBR® No-ROX Kit (Meridian Bioscience, Cat. No. BIO-98050) on the Bio-Rad CFX384 Real-Time PCR detection system, with the following PCR conditions: 95° C. for 2 min and 40 cycles of 95° C. for 5 s, 60° C. for 10 s and 72° C. for 15 s, followed by melt curve analysis. All primers used for detection of mRNA expression are outline in Table 3. All data was normalised to the reference gene 18S and normalised to control cells (non-treated PSC-CM)."}, "[1]": {"tested_on": "PSC-CMs cultured in monolayer", "assay": "In-vitro spontaneous beat rate of PSC-CMs under anti-arrhythmic drugs", "assay_type": "cell-based, human", "conditions": "0-100 μM drug concentrations", "text": "FIG. 3. […] A further 2 animals underwent sham infarction and vehicle injection. (b) Representative CMR reconstruction (created with ADAS 3D) merged with epicardial voltage map, used to choose, and annotate border and infarct zone injection sites (black circles). (c) Plot depicting the percentage of time per day each cell (red), cell and drug (blue), or vehicle (green) recipient spent in ventricular arrhythmia over course of study protocol. […] (f) Dose-dependent suppression of PSC-CM contraction rate using amiodarone (dark purple, square) and ivabradine (light purple, circle) in vitro (0-100 μM drug concentrations). […] (h) Telemetry strip from representative cell and anti-arrhythmic recipient showing predominantly sinus rhythm with occasional ventricular ectopic beat. (i-k) Arrythmia parameters from day 0 to day 28 for each subject, grouped by treatment allocation (presented as mean±SEM). […]\nGiven the automatic mechanism for PSC-CM EAs, the inventors hypothesised that suppressing the rate of graft automaticity below that of the native sinus node would reduce arrhythmia burden. […] To further interrogate this finding the beat rates of sinus rhythm and EAs for each animal were analysed."}, "[2]": {"tested_on": "H9 human embryonic stem cell line containing a gCaMP6f reporter, differentiating aggregates", "assay": "Bioreactor PSC-CM differentiation with retinoic acid signalling activated: cTnT flow cytometry, qPCR, scRNA-seq, beat frequency", "assay_type": "cell-based", "procedure": "The H9 cell line containing the gCaMP6f fluorescent calcium reporter was used for all experiments (provided by University of Queensland StemCore facility). Each production run was started from a frozen working cell bank (WCB) cryovial, which was expanded for 8 days in monolayer on matrigel (Corning) using the commercially available medium mTeSR™ Plus (Stem Cell Technologies) (FIG. 1). On Day −3, cells were inoculated at a density of 2.5-3.0×10^5 cells/mL in mTeSR 3D supplemented with 10 μM Y-27632 (TOCRIS Bioscience) and 10 ug/mL of a thermoresponsive polymer pNIPAM conjugated to fibronectin (Chen, X. et al. Tissue Eng Part C Methods 24, 146-157) to form aggregates. A DASbox (Eppendorf) stirred tank bioreactor system was used for aggregate formation and suspensions controlled at 37.2° C., pH 7.2, and 30% DO. At day −1, rapamycin (Merck) was added to a final concentration of 5 nM to enhance survival during differentiation. […]\nThe expression of cTnT was measured on a Cytoflex Flow Cytometer (Beckman Coulter). […]\nReactions were performed in technical triplicate. Quantitative PCR was performed on the BioRad CFX96 Real-Time PCR Detection System with standard cycling parameters described in the master mix protocol. […] Fold difference in expression was calculated using the comparative CT formula, using GAPDH cDNA from a reference sample. […]"}},
  "data": [
    {"smiles": "CCN(CC)c1ccc(C=O)cc1", "note": "[DEAB, 4-diethylaminobenzaldehyde]", "values": [
      {"measurement": "expression level of IRX4", "setting": "hPSC SCVI8; RT-PCR day 14", "result": "no significant difference"},
      {"measurement": "expression level of KCNJ3", "setting": "hPSC SCVI8; RT-PCR day 14", "result": "significant lower expression levels"},
      {"measurement": "expression level of MYH7", "setting": "hPSC SCVI8; RT-PCR day 14", "result": "no significant difference"},
      {"measurement": "expression level of MYL2v", "setting": "hPSC SCVI8; RT-PCR day 14", "result": "no significant difference"},
      {"measurement": "expression level of SHOX2", "setting": "hPSC SCVI8; RT-PCR day 14", "result": "significant lower expression levels"},
      {"measurement": "expression level of cTnT", "setting": "hPSC SCVI8; RT-PCR day 14, relative to 18S, versus non-treated PSC-CM", "result": "no significant difference"}
    ]},
    {"smiles": "COc1cc2c(cc1OC)CC(=O)N(CCCN(C)C[C@H]1Cc3cc(OC)c(OC)cc31)CC2", "note": "[Ivabradine]", "values": [
      {"measurement": "spontaneous beat rate of PSC-CMs", "setting": "[1]", "result": "dose-dependent reduction in the spontaneous beat rate"}
    ]},
    {"smiles": "CC1=C(/C=C/C(C)=C/C=C/C(C)=C/C(=O)O)C(C)(C)CCC1", "note": "[Retinoic acid, retinoic acid]", "values": [
      {"measurement": "cTnT expression", "setting": "[2]; RA signalling activated day 2 to day 6, n=12, control differentiations in parallel 83.6±7.0%", "result": "62.4±33.1", "unit": "%"},
      {"measurement": "rate of spontaneous contraction of aggregates", "setting": "[2]; day 15 before aggregate dissociation, n=6, control 14.2±5.5 b.p.m", "result": "50.7±16.8", "unit": "b.p.m"}
    ]},
    {"smiles": "CCCCc1oc2ccccc2c1C(=O)c1cc(I)c(OCCN(CC)CC)c(I)c1", "note": "[amiodarone]", "values": [
      {"measurement": "spontaneous beat rate of PSC-CMs", "setting": "[1]", "result": "dose-dependent reduction in the spontaneous beat rate"}
    ]}
  ]
}
